Where two headings read alike, the source gives them in different places.
Assays:
HIV-1, NL4-3 strain = experiment: Virus infection assay (virus entry and single-cycle infection); format: cell-based; conditions: Human immunodeficiency virus 1, NL43, TZM-b1, read-out: Nl4
Procedure: TZM-b1 indicator cells were propagated in Dulbecco's Modified Eagle's Medium (DMEM) containing 10% fetal bovine serum (FBS, heat-inactivated) and supplemented with gentamicin (50 ug/mL).
This assay determines the effects of compounds on virus entry and single-cycle infection of cells. In this assay, virus (HIV-1, NL4-3 strain) is added to indicator cells expressing the CD4 receptor and both the CXCR4 and CCR5 co-receptor. The cells contain both a lac Z and a luciferase reporter gene under control of the viral LTR transcription promoter. The cells and virus are incubated together in the presence of various concentrations of test compounds. Successful infection of the cells by the virus permits activation of the reporter gene by the viral Tat transcription factor. The resulting beta-galactosidase or luciferase activity is quantitated using a chemiluminescent substrate and a luminescent plate reader.
Specifically, one day prior to infection, 1.5×10^4 TZM-b1 indicator cells were added to each well of a 96-well microtiter plate. On the day of the experiment, virus (MOI 0.01) in 50 μL of medium (Dulbecco's Modified Eagle's Medium) supplemented with DEAE-dextran at a final concentration of 80 μg/mL was added to cells along with various concentrations of test compound in 50 μL of Dulbecco's Modified Eagle's Medium. Control wells had virus alone. Following a 4 hr incubation at 37° C., complete media [DMEM supplemented with 10% fetal bovine serum (FBS, heat-inactivated) and gentamicin (50 ug/mL)] was added. One day post-infection the level of virus infection was quantitated by detection of β-galactosidase expression using the Gal-Screen system (Applied Biosystems).

[1] = target: T1, HIV Env six-helix bundle (6HB) structure (Human immunodeficiency virus type 1 group M subtype B, UniProt P04579); experiment: Six-helix bundle (6HB) assay; format: cell-based, HIV-1 (strain RF)
T1 construct: H9 cells chronically infected with HIV-1 (H9/HIV-1RF); endogenous in cells; host or cells: H9 cells chronically infected with HIV-1 strain RF (Env is made from the virus in the infected cells, not by transfection)
Procedure: 3×10^6H9 cells were incubated with 1 mL of HIV-1 (strain RF) supplemented with 40 μg/mL of DEAE-dextran. Virus and cells were incubated together at 37° C. for 2-4 hours with sporadic shaking to resuspend cells. 10 mL of media (RPMI 1640 containing 10% fetal bovine serum and supplemented with 50 μg/mL gentamicin) was then added and the virus-cell coculture was incubated at 37° C. in a humidified 5% CO2 incubator. 3 days post-infection and every 2-3 days thereafter, the infected H9/HIV-1RF cells were centrifuged, the supernatant was removed, and the cells were resuspended at a density of 0.3×10^6 cells/mL in media (RPMI 1640 containing 10% fetal bovine serum and supplemented with 50 μg/mL gentamicin). Chronically infected H9/HIV-1RF cells were used in experiments starting 12-15 days after infection and up to 40 days post-infection.
This assay determines the effect of compounds on conformational changes in HIV envelope glycoprotein (Env) that are required in order for Env to mediate the fusion of the viral and cellular membranes during virus entry and infection. Specifically, this assay measures the effect of compounds on the formation of the HIV Env six-helix bundle (6HB) structure.
H9 cells chronically infected with HIV-1 (H9/HIV-1RF) were resuspended in Stain/Wash Buffer (1% bovine serum albumin, 0.1% sodium azide in phosphate-buffered saline) and aliquoted at 2.5×10^5 cells per well into 96-well V-bottom plates containing various concentrations of test compounds. Cells and compounds were incubated for 30 minutes at 37° C. Recombinant soluble CD4 (sCD4) was then added to a final concentration of 1 μg/mL. Negative control wells contained no sCD4 and no test compound. Positive control wells contained sCD4 but no test compound. The plate was incubated for 1 hour at 37° C. to allow the sCD4 to bind to HIV Env and induce conformational changes in the Env protein. Antibody that is specific for the HIV Env six-helix bundle conformation was then added (1 μL polyclonal rabbit serum per well), and the plate was incubated for an additional 1 hour at 37° C. to permit antibody binding. The cells were then washed once with Stain/Wash Buffer to remove compound and excess antibody. The cells were resuspended in Stain/Wash Buffer containing PE-labeled anti-rabbit secondary antibody (KPL) at 0.25 μg per well. The cells were incubated for 45 min at 4° C. to permit secondary antibody binding. Fluorescence was detected using a BD FACSArray™ bioanalyzer. Compounds that inhibited Env conformational changes were identified as those that decreased primary antibody binding to the six-helix bundle epitope resulting in a decrease in fluorescence signal.

T1 sequence (P04579 32-519): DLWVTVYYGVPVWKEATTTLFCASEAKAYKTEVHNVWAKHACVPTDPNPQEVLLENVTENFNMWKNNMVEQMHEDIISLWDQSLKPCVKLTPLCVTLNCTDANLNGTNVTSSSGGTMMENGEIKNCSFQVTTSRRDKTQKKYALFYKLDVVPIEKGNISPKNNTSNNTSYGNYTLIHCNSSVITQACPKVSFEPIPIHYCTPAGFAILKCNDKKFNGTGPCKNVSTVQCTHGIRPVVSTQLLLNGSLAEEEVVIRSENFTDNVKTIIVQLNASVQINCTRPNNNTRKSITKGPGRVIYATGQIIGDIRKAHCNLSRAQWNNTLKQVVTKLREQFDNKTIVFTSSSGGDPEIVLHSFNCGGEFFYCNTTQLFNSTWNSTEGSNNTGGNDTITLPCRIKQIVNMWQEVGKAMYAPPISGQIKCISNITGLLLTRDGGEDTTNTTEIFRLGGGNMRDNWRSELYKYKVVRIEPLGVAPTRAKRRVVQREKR
T1 sequence (P04579 520-865): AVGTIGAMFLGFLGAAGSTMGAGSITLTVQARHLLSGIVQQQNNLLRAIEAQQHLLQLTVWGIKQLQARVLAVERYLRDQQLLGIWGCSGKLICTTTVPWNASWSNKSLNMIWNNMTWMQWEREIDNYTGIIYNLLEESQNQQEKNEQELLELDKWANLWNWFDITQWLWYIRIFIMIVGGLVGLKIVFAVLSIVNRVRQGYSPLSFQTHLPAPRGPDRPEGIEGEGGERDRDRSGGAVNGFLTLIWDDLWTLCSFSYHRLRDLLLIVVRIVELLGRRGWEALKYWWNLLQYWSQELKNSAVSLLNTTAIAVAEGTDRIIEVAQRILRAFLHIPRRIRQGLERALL

SMILES	IC50 (HIV-1, NL4-3 strain) [nM]	IC50 [1] [nM]	IC50 ([1]; read-out: 6HB IC50, H9 cells chronically infected with HIV-1 RF, sCD4-induced six-helix bundle formation) [nM]
COc1ccc(-c2nc3c(C(=O)N4CCN([C@@H](C)c5cccc(C#N)c5)C[C@H]4C)cnn3c(C(F)(F)F)c2C)cc1	< 1000	< 1000	–
COc1ccc(-c2nc3c(C(=O)N4CCN(C(CO)c5ccc(C(C)=O)s5)C[C@H]4C)cnn3c(C(F)(F)F)c2C)cc1 (stereo partly drawn)	< 1000	1100 to 10000	–
COc1ccc(-c2nc3c(C(=O)N4CCN(C(CO)c5ccc(Cl)nc5)C[C@H]4C)cnn3c(C(F)(F)F)c2C)cc1 (stereo partly drawn)	< 1000	< 1000	–
COc1ccc(-c2nc3c(C(=O)N4CCN(C(CO)c5ccc(C#N)cc5)C[C@H]4C)cnn3c(C(F)(F)F)c2C)cc1 (stereo partly drawn)	1100 to 10000	1100 to 10000	–
COc1ccc(-c2nc3c(C(=O)N4CCN(C(C(N)=O)c5ccccc5)C[C@H]4C)cnn3c(C(F)(F)F)c2C)cc1 (stereo partly drawn) [1-piperazineacetamide, 4-[[5-(4-methoxyphenyl)-6-methyl-7-(trifluoromethyl)pyrazolo[1,5-α]pyrimidin-3-yl]carbonyl]-3-methyl-α-phenyl-, (3R)-]	< 1000	< 1000	–
CNC(=O)C(c1ccccc1)N1CCN(C(=O)c2cnn3c(C(F)(F)F)c(C)c(-c4ccc(OC)cc4)nc23)[C@H](C)C1 (stereo partly drawn) [1-piperazineacetamide, 4-[[5-(4-methoxyphenyl)-6-methyl-7-(trifluoromethyl)pyrazolo[1,5-α]pyrimidin-3-yl]carbonyl]-N,3-dimethyl-α-phenyl-, (3R)-]	< 1000	< 1000	–
COc1ccc(-c2nc3c(C(=O)N4CCN(C(C(=O)N(C)C)c5ccccc5)C[C@H]4C)cnn3c(C(F)(F)F)c2C)cc1 (stereo partly drawn) [1-piperazineacetamide, 4-[[5-(4-methoxyphenyl)-6-methyl-7-(trifluoromethyl)pyrazolo[1,5-α]pyrimidin-3-yl]carbonyl]-N,N,3-trimethyl-α-phenyl-, (3R)-]	< 1000	< 1000	–
COc1ccc(-c2nc3c(C(=O)N4CCN(C(C(=O)O)c5ccccc5)C[C@H]4C)cnn3c(C(F)(F)F)c2C)cc1 (stereo partly drawn) [1-piperazineacetic acid, 4-[[5-(4-methoxyphenyl)-6-methyl-7-(trifluoromethyl)pyrazolo[1,5-α]pyrimidin-3-yl]carbonyl]-3-methyl-α-phenyl-, (3R)-]	> 10100	> 10100	–
COC(=O)C(c1ccccc1)N1CCN(C(=O)c2cnn3c(C(F)(F)F)c(C)c(-c4ccc(OC)cc4)nc23)[C@H](C)C1 (stereo partly drawn) [1-piperazineacetic acid, 4-[[5-(4-methoxyphenyl)-6-methyl-7-(trifluoromethyl)pyrazolo[1,5-α]pyrimidin-3-yl]carbonyl]-3-methyl-α-phenyl-, methyl ester, (3R)-]	< 1000	< 1000	–
COc1ccc(-c2nc3c(C(=O)N4CCN(C(C#N)c5ccccc5)C[C@H]4C)cnn3c(C(F)(F)F)c2C)cc1 (stereo partly drawn) [1-piperazineacetonitrile, 4-[[5-(4-methoxyphenyl)-6-methyl-7-(trifluoromethyl)pyrazolo[1,5-α]pyrimidin-3-yl]carbonyl]-3-methyl-α-phenyl-, (3R)-]	< 1000	< 1000	–
COc1ccc(-c2nc3c(C(=O)N4CCN([C@@H](C)c5ccc(C#N)s5)C[C@H]4C)cnn3c(C(F)(F)F)c2C)cc1 [2-thiophenecarbonitrile, 5-[(1S)-1-[(3R)-4-[[5-(4-methoxyphenyl)-6-methyl-7-(trifluoromethyl)pyrazolo[1,5-α]pyrimidin-3-yl]carbonyl]-3-methyl-1-piperazinyl]ethyl]-]	1100 to 10000	< 1000	–
COc1ccc(-c2nc3c(C(=O)N4CCN(C(CO)c5ccc(C(=O)N(C)C)s5)C[C@H]4C)cnn3c(C(F)(F)F)c2C)cc1 (stereo partly drawn) [2-thiophenecarboxamide, 5-[2-hydroxy-1-[(3R)-4-[[5-(4-methoxyphenyl)-6-methyl-7-(trifluoromethyl)pyrazolo[1,5-α]pyrimidin-3-yl]carbonyl]-3-methyl-1-piperazinyl]ethyl]-N,N-dimethyl-]	> 10100	> 10100	–
COc1ccc(-c2nc3c(C(=O)N4CCN(C(CO)c5ccc(C(=O)O)s5)C[C@H]4C)cnn3c(C(F)(F)F)c2C)cc1 (stereo partly drawn) [2-thiophenecarboxylic acid, 5-[2-hydroxy-1-[(3R)-4-[[5-(4-methoxyphenyl)-6-methyl-7-(trifluoromethyl)pyrazolo[1,5-α]pyrimidin-3-yl]carbonyl]-3-methyl-1-piperazinyl]ethyl]-]	> 10100	1100 to 10000	–
COc1ccc(-c2nc3c(C(=O)N4CCN(C(CO)c5ccccc5NC(C)=O)C[C@H]4C)cnn3c(C(F)(F)F)c2C)cc1 (stereo partly drawn) [acetamide, N-[2-[2-hydroxy-1-[(3R)-4-[[5-(4-methoxyphenyl)-6-methyl-7-(trifluoromethyl)pyrazolo[1,5-α]pyrimidin-3-yl]carbonyl]-3-methyl-1-piperazinyl]ethyl]phenyl]-]	> 10100	> 10100	–
COc1ccc(-c2nc3c(C(=O)N4CCN(C(CNC(C)=O)c5ccccc5)C[C@H]4C)cnn3c(C(F)(F)F)c2C)cc1 (stereo partly drawn) [acetamide, N-[2-[(3R)-4-[[5-(4-methoxyphenyl)-6-methyl-7-(trifluoromethyl)pyrazolo[1,5-α]pyrimidin-3-yl]carbonyl]-3-methyl-1-piperazinyl]-2-phenylethyl]-]	< 1000	< 1000	–
COc1ccc(-c2nc3c(C(=O)N4CCN([C@@H](CO)c5ccccc5)C[C@H]4C)cnn3c(C(F)(F)F)c2C)cc1 [drawing 44, methanone, [(2R)-4-[(1R)-2-hydroxy-1-phenylethyl]-2-methyl-1-piperazinyl][5-(4-methoxyphenyl)-6-methyl-7-(trifluoromethyl)pyrazolo[1,5-α]pyrimidin-3-yl]-]	–	–	< 1000
CCC(c1ccccc1)N1CCN(C(=O)c2cnn3c(C(F)(F)F)cc(-c4ccc(OC)cc4)nc23)CC1 (stereo not drawn) [methanone, [5-(4-methoxyphenyl)-7-(trifluoromethyl)pyrazolo[1,5-a]pyrimidin-3-yl][4-(1-phenylpropyl)-1-piperazinyl]-]	–	1100 to 10000	–
COc1ccc(-c2cc(C(F)(F)F)n3ncc(C(=O)N4CCN(C(C)c5ccccc5)CC4)c3n2)cc1 (stereo not drawn) [methanone, [5-(4-methoxyphenyl)-7-(trifluoromethyl)pyrazolo[1,5-α]pyrimidin-3-yl][4-(1-phenylethyl)-1-piperazinyl]-]	–	1100 to 10000	–
COc1ccc(-c2cc(C(F)(F)F)n3ncc(C(=O)N4CCN([C@@H](C)c5ccccc5)CC4)c3n2)cc1 [methanone, [5-(4-methoxyphenyl)-7-(trifluoromethyl)pyrazolo[1,5-α]pyrimidin-3-yl][4-(1-phenylethyl)-1-piperazinyl]-]	–	1100 to 10000	–
COc1ccc(-c2cc(C(F)(F)F)n3ncc(C(=O)N4CCN([C@H](C)c5ccccc5)CC4)c3n2)cc1 [methanone, [5-(4-methoxyphenyl)-7-(trifluoromethyl)pyrazolo[1,5-α]pyrimidin-3-yl][4-(1-phenylethyl)-1-piperazinyl]-]	–	1100 to 10000	–
COc1ccc(-c2cc(C(F)(F)F)n3ncc(C(=O)N4CCN(C(c5ccccc5)C(F)(F)F)CC4)c3n2)cc1 (stereo not drawn) [methanone, [5-(4-methoxyphenyl)-7-(trifluoromethyl)pyrazolo[1,5-α]pyrimidin-3-yl][4-(2,2,2-trifluoro-1-phenylethyl)-1-piperazinyl]-]	–	< 1000	–

From patent US20090215778A1, “Alpha-substituted Arylmethyl Piperazine Pyrazolo [1,5-alpha]Pyrimidine Amide Derivatives” (priority 2007, published 2009)
